Experimental data as given in patent publication US11613552B2, “Pharmaceutical agents, compositions, and methods relating thereto” (Alltech, Inc., priority 2017, dated 2023).

Biological target: T1, Insrβ (Mus musculus, UniProt P15208)
T1 construct: gastrocnemius skeletal muscle and liver samples were collected and stored at −80° C; from tissue; host or cells: gastrocnemius skeletal muscle (A22) and liver (A24) of Lepr db/db mice
Assay: Western blot of Insrβ phosphorylation in skeletal muscle of Lepr^db/db mice
Format: in vivo
Conditions: 0.136 mg/kg ip daily
Experimental: Male Lepr^db/db mice (C57BL/6J strain, purchased from The Jackson Laboratory) at postnatal day 38 were intraperitoneally injected daily with physiological saline ([…]) containing 0.2% DMSO, or 0.136 mg of Compound #43 per kilogram body weight, diluted in the sterile physiological saline) for 52 days. After the treatment, gastrocnemius skeletal muscle and liver samples were collected and stored at −80° C.
Frozen skeletal muscle and liver tissues were minced in sterile ice-old PBS containing complete proteinase and phosphatase inhibitors (Thermo-Fisher Scientific, Waltham, Mass.) and subjected to homogenization using a tissue homogenizer (Thermo-Fisher Scientific, Waltham, Mass.). These tissue homogenates were diluted in Themo-Fisher's premade RIPA buffer (1 part homogenate/2 part of RIPA buffer) containing complete proteinase/phosphatase inhibitors to extract the proteins. Proteins in the homogenates were extracted in RIPA buffer at 4° C. overnight. These overnight-extracted protein/tissue lysates were centrifuged at 12000×g for 30 min at 4° C., and the protein levels in the supernatant of these tissue lysates were determined using the Pierce Micro-BCA protein assay kit (Thermo Scientific-Piece Biotechnology, Rockford, Ill.) according to the manufacturer's protocol. […]

T1 sequence (P15208 753-1372 limits assumed): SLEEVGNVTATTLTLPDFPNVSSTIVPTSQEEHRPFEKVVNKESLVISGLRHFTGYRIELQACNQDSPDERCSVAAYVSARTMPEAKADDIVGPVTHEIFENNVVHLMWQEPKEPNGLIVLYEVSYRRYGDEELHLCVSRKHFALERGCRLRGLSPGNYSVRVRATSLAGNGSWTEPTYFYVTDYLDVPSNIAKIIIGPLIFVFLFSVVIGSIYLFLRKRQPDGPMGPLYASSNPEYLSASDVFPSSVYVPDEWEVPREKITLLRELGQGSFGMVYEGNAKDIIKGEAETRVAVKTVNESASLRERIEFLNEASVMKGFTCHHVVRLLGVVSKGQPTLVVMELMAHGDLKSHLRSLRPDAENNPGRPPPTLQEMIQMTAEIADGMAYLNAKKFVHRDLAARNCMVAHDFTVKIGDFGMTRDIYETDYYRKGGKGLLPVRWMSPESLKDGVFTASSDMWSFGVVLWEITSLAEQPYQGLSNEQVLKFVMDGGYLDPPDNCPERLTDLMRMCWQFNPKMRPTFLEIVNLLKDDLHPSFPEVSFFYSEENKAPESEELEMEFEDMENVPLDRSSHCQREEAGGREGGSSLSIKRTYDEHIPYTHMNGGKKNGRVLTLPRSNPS
T1 sequence (P15208 28-748 partner limits assumed): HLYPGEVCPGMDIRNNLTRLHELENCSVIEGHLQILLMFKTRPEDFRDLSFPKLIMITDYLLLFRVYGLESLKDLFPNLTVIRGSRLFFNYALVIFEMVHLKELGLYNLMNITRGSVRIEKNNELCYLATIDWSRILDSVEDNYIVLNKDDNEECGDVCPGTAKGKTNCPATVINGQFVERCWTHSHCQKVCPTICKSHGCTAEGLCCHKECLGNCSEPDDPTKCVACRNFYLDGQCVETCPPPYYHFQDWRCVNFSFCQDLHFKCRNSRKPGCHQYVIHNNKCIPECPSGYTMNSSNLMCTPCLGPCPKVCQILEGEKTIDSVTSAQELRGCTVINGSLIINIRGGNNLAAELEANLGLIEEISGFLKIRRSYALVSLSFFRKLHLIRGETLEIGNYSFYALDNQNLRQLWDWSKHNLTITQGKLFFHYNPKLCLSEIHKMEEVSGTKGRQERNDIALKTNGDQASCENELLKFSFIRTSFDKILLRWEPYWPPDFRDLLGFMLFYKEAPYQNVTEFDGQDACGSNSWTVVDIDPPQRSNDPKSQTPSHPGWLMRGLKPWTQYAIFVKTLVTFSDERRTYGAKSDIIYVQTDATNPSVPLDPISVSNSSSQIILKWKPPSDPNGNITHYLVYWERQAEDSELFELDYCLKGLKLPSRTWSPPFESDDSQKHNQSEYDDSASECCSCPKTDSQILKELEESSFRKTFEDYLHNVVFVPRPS

**Q.** What does the source list for C[Se]C[C@H]1O[C@@H](n2cnc3c(N)ncnc32)C(OC(C)=O)C1OC(C)=O (some centres unmarked) [Compound #43, Adenosine, 5′-Se-methyl-5′-selino-, 2′,3′-diacetate]?
**A.** increase of phosphorylated Insrβ (Tyrosine 1146) in skeletal muscle (52 days (FIG. 20B)): ~2.5 fold; total Insrβ protein levels in skeletal muscle (52 days (FIG. 20C)): no significant change of total Insrβ protein levels
